Test results reported in patent US20040215021A1, “Stable lansoprazole containing more than 500 ppm, up to about 3,000 ppm water and more than 200 ppm, up to about 5,000 ppm alcohol” (priority 2002, published 2004).
Like-named read-outs stand apart in the source and are kept apart here.

Assays:
[1] = Stability of lansoprazole under different storage conditions (HPLC impurities); assay type: physicochemical
From the text: The obtained lansoprazole is stable.
(§1) Chromatographic purity method of lansoprazole is detailed in the monograph in USP Forum Vol.26(5) [September-October 2000].

[2] = Stability of stabilized vs. non-stabilized 'solvent-free' lansoprazole (HPLC impurities, color); assay type: physicochemical; conditions: 3 months, 40° C., 75% humidity
From the text: as §1

[3] = cited from earlier work

Question: With `Cc1c(OCC(F)(F)F)ccnc1C[S+]([O-])c1nc2ccccc2[nH]1` (centres unmarked) [wet lansoprazole product] as the molecule, how does the “Stability (in words)” value ([1]; Example 4, wet product before drying, water about 2,200 ppm, ethanol about 300 to about 500 ppm expected) read?
Answer: behave similarly to the dry lansoprazole

Question: With `Cc1c(OCC(F)(F)F)ccnc1C[S+]([O-])c1nc2ccccc2[nH]1` (centres unmarked) [Lansoprazole Not Stabilized With Ammonia] as the molecule, how does the Color [2] read?
Answer: Brownish

Question: And the LNP-SO2 [2]?
Answer: 0.04%

Question: And the LNPS [2]?
Answer: 0.06%

Question: And the “Total Impurities” value [2]?
Answer: 0.31%

Question: For `Cc1c(OCC(F)(F)F)ccnc1C[S+]([O-])c1nc2ccccc2[nH]1` (centres unmarked) [Lansoprazole, 2-[[[3-methyl-4-(2,2,2-trifluoro-ethoxy)-2-pyridinyl]methyl]sulfinyl]-1H-benzimidazole], which Color on storage ([3]; 4 months at 40° C. and 75% room humidity) is on record?
Answer: pale brown

Question: What about the Color on storage ([3]; 4 months at 40° C., absence of humidity) of the same molecule?
Answer: pale yellowish brown

Question: And the LNP-SO2 ([1]; 1 month, 2-8° C.)?
Answer: 0.04%

Question: And the LNPS ([1]; 1 month, 2-8° C.)?
Answer: 0.01%

Question: What about the “Total Impurities” value ([1]; 1 month, 2-8° C.) of the same molecule?
Answer: 0.05%

Question: And the LNP-SO2 ([1]; 1 month, 25° C., 60% humidity)?
Answer: 0.04%

Question: What about the LNPS ([1]; 1 month, 25° C., 60% humidity) of the same molecule?
Answer: 0.01%

Question: And the “Total Impurities” value ([1]; 1 month, 25° C., 60% humidity)?
Answer: 0.09%

Question: And the LNP-SO2 ([1]; 2 month, 2-8° C.)?
Answer: 0.04%

Question: What about the LNPS ([1]; 2 month, 2-8° C.) of the same molecule?
Answer: 0.01%

Question: What about the “Total Impurities” value ([1]; 2 month, 2-8° C.) of the same molecule?
Answer: 0.05%

Question: And the LNP-SO2 ([1]; 2 month, 25° C., 60% humidity)?
Answer: 0.04%

Question: And the LNPS ([1]; 2 month, 25° C., 60% humidity)?
Answer: 0.01%

Question: And the “Total Impurities” value ([1]; 2 month, 25° C., 60% humidity)?
Answer: 0.08%

Question: What about the LNP-SO2 ([1]; 2 weeks, 25° C., 60% humidity) of the same molecule?
Answer: 0.04%

Question: And the LNPS ([1]; 2 weeks, 25° C., 60% humidity)?
Answer: <detection limit

Question: And the “Total Impurities” value ([1]; 2 weeks, 25° C., 60% humidity)?
Answer: 0.04%

Question: And the LNP-SO2 ([1]; 3 month, 2-8° C.)?
Answer: 0.04%

Question: And the LNPS ([1]; 3 month, 2-8° C.)?
Answer: <detection limit

Question: What about the “Total Impurities” value ([1]; 3 month, 2-8° C.) of the same molecule?
Answer: 0.04%

Question: And the LNP-SO2 ([1]; 3 month, 25° C., 60% humidity)?
Answer: 0.04%

Question: What about the LNPS ([1]; 3 month, 25° C., 60% humidity) of the same molecule?
Answer: <detection limit

Question: What about the “Total Impurities” value ([1]; 3 month, 25° C., 60% humidity) of the same molecule?
Answer: 0.1%

Question: And the LNP-SO2 ([1]; 6 month, 2-8° C.)?
Answer: 0.04%

Question: What about the LNPS ([1]; 6 month, 2-8° C.) of the same molecule?
Answer: <detection limit

Question: And the “Total Impurities” value ([1]; 6 month, 2-8° C.)?
Answer: 0.04%

Question: What about the LNP-SO2 ([1]; 6 month, 25° C., 60% humidity) of the same molecule?
Answer: 0.04%

Question: What about the LNPS ([1]; 6 month, 25° C., 60% humidity) of the same molecule?
Answer: <detection limit

Question: And the “Total Impurities” value ([1]; 6 month, 25° C., 60% humidity)?
Answer: 0.12%

Question: And the LNP-SO2 ([1]; 9 month, 2-8° C.)?
Answer: 0.05%

Question: What about the LNPS ([1]; 9 month, 2-8° C.) of the same molecule?
Answer: <detection limit

Question: And the “Total Impurities” value ([1]; 9 month, 2-8° C.)?
Answer: 0.05%

Question: What about the LNP-SO2 ([1]; 9 month, 25° C., 60% humidity) of the same molecule?
Answer: 0.05%

Question: And the LNPS ([1]; 9 month, 25° C., 60% humidity)?
Answer: 0.04%

Question: And the “Total Impurities” value ([1]; 9 month, 25° C., 60% humidity)?
Answer: 0.18%

Question: And the LNPS ([1]; 12 month, 2-8° C.)?
Answer: <detection limit

Question: And the “Total Impurities” value ([1]; 12 month, 2-8° C.)?
Answer: 0.03%

Question: What about the LNP-SO2 ([1]; 12 month, 25° C., 60% humidity) of the same molecule?
Answer: 0.04%

Question: What about the LNPS ([1]; 12 month, 25° C., 60% humidity) of the same molecule?
Answer: 0.07%

Question: What about the “Total Impurities” value ([1]; 12 month, 25° C., 60% humidity) of the same molecule?
Answer: 0.32%

Question: What about the “Stability (in words)” value ([1]; product of Example 2, water 2,200 ppm, alcohol <50 ppm) of the same molecule?
Answer: stable

Question: What about the LNP-SO2 ([1]; time 0) of the same molecule?
Answer: 0.04%

Question: And the LNPS ([1]; time 0)?
Answer: <detection limit

Question: And the “Total Impurities” value ([1]; time 0)?
Answer: 0.04%

Question: With `Cc1c(OCC(F)(F)F)ccnc1C[S+]([O-])c1nc2ccccc2[nH]1` (centres unmarked) [Lansoprazole Stabilized With Ammonia] as the molecule, how does the Color [2] read?
Answer: White

Question: And the LNP-SO2 [2]?
Answer: 0.02%

Question: What about the LNPS [2] of the same molecule?
Answer: 0.03%

Question: And the “Total Impurities” value [2]?
Answer: 0.08%
